System: K86415-001-R-J1-PDC complex spheroids, viability
Test: Anticancer human tumor K86415-001-R-J1-PDC patient-derived lung adenocarcinoma cell line growth inhibition [RAS]
Details: for IC50: curve of first compound; for viability, T/C: stronger effect = lower value
Procedure, shortened: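 Agents were tested in combination matrices in half-log decrements from a top concentration at or near clinical Cmax (10 microM if undetermined). Targets were multi-cell spheroids of tumour lines plus HUVEC and MSC stromal cells.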

[1] = second compound 0.000949 µM, first compound 0.0316 µM
[2] = second compound 0.000949 µM, first compound 0.1 µM
[3] = second compound 0.000949 µM, first compound 0.316 µM
[4] = second compound 0.000949 µM, first compound 1 µM
[5] = second compound 0.000949 µM, first compound 3.16 µM
[6] = second compound 0.000949 µM, first compound 10 µM
[7] = second compound 0.003 µM, first compound 0.0316 µM
[8] = second compound 0.003 µM, first compound 0.1 µM
[9] = second compound 0.003 µM, first compound 0.316 µM
[10] = second compound 0.003 µM, first compound 1 µM
[11] = second compound 0.003 µM, first compound 3.16 µM
[12] = second compound 0.003 µM, first compound 10 µM
[13] = second compound 0.00949 µM, first compound 0.0316 µM
[14] = second compound 0.00949 µM, first compound 0.1 µM
[15] = second compound 0.00949 µM, first compound 0.316 µM
[16] = second compound 0.00949 µM, first compound 1 µM
[17] = second compound 0.00949 µM, first compound 3.16 µM
[18] = second compound 0.00949 µM, first compound 10 µM
[19] = second compound 0.03 µM, first compound 0.0316 µM
[20] = second compound 0.03 µM, first compound 0.1 µM
[21] = second compound 0.03 µM, first compound 0.316 µM
[22] = second compound 0.03 µM, first compound 1 µM
[23] = second compound 0.03 µM, first compound 3.16 µM
[24] = second compound 0.03 µM, first compound 10 µM
[25] = second compound 0.0949 µM, first compound 0.0316 µM
[26] = second compound 0.0949 µM, first compound 0.1 µM
[27] = second compound 0.0949 µM, first compound 0.316 µM
[28] = second compound 0.0949 µM, first compound 1 µM
[29] = second compound 0.0949 µM, first compound 3.16 µM
[30] = second compound 0.0949 µM, first compound 10 µM
[31] = second compound 0.3 µM, first compound 0.0316 µM
[32] = second compound 0.3 µM, first compound 0.1 µM
[33] = second compound 0.3 µM, first compound 0.316 µM
[34] = second compound 0.3 µM, first compound 1 µM
[35] = second compound 0.3 µM, first compound 3.16 µM
[36] = second compound 0.3 µM, first compound 10 µM
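Also: spheroids exposed to agents for seven days before readout.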

## CC(C)NCC(C(=O)N1CCN(c2ncnc3c2C(C)CC3O)CC1)c1ccc(Cl)cc1 (stereo not drawn) + CCn1c(-c2cccnc2C(C)OC)c2c3cc(ccc31)N1CCOC(CC(NC(=O)C(C(C)C)N(C)C(=O)C3(F)CCN(C(=O)C#CC(C)(C)N(C)C)CC3)C(=O)N3CCCC(N3)C(=O)OCC(C)(C)C2)C1
Second compound 0.000949 µM
  IC50: < 31.6 nM
Second compound 0.003 µM
  IC50: < 31.6 nM
Second compound 0.00949 µM
  IC50: < 31.6 nM
Second compound 0.03 µM
  IC50: < 31.6 nM
Second compound 0.0949 µM
  IC50: < 31.6 nM
Second compound 0.3 µM
  IC50: < 31.6 nM
[1]
  viability, T/C: 35.7%
[2]
  viability, T/C: 32.2%
[3]
  viability, T/C: 17.5%
[4]
  viability, T/C: 23.3%
[5]
  viability, T/C: 27.7%
[6]
  viability, T/C: 2.82%
[7]
  viability, T/C: 13.4%
[8]
  viability, T/C: 10.9%
[9]
  viability, T/C: 8.95%
[10]
  viability, T/C: 8.63%
[11]
  viability, T/C: 7.76%
[12]
  viability, T/C: 2.54%
[13]
  viability, T/C: 12.8%
[14]
  viability, T/C: 9.52%
[15]
  viability, T/C: 9.15%
[16]
  viability, T/C: 9.63%
[17]
  viability, T/C: 4.93%
[18]
  viability, T/C: 3.21%
[19]
  viability, T/C: 12.9%
[20]
  viability, T/C: 10.5%
[21]
  viability, T/C: 10.2%
[22]
  viability, T/C: 8.95%
[23]
  viability, T/C: 4.3%
[24]
  viability, T/C: 3.21%
[25]
  viability, T/C: 9.52%
[26]
  viability, T/C: 9.03%
[27]
  viability, T/C: 9.7%
[28]
  viability, T/C: 10%
[29]
  viability, T/C: 4.97%
[30]
  viability, T/C: 2.94%
[31]
  viability, T/C: 12.9%
[32]
  viability, T/C: 12%
[33]
  viability, T/C: 10.3%
[34]
  viability, T/C: 6.44%
[35]
  viability, T/C: 4.71%
[36]
  viability, T/C: 2.26%

## CC(C)n1nc(-c2ccc3oc(N)nc3c2)c2c(N)ncnc21 + CCn1c(-c2cccnc2C(C)OC)c2c3cc(ccc31)N1CCOC(CC(NC(=O)C(C(C)C)N(C)C(=O)C3(F)CCN(C(=O)C#CC(C)(C)N(C)C)CC3)C(=O)N3CCCC(N3)C(=O)OCC(C)(C)C2)C1
Second compound 0.000949 µM
  IC50: < 0.316 nM
Second compound 0.003 µM
  IC50: < 0.316 nM
Second compound 0.00949 µM
  IC50: < 0.316 nM
Second compound 0.03 µM
  IC50: < 0.316 nM
Second compound 0.0949 µM
  IC50: < 0.316 nM
Second compound 0.3 µM
  IC50: < 0.316 nM
Second compound 0.000949 µM, first compound 0.000316 µM
  viability, T/C: 34%
Second compound 0.000949 µM, first compound 0.001 µM
  viability, T/C: 35.4%
Second compound 0.000949 µM, first compound 0.00316 µM
  viability, T/C: 23.2%
Second compound 0.000949 µM, first compound 0.01 µM
  viability, T/C: 41.4%
[1]
  viability, T/C: 24.4%
[2]
  viability, T/C: 5.51%
Second compound 0.003 µM, first compound 0.000316 µM
  viability, T/C: 13%
Second compound 0.003 µM, first compound 0.001 µM
  viability, T/C: 12.1%
Second compound 0.003 µM, first compound 0.00316 µM
  viability, T/C: 10.7%
Second compound 0.003 µM, first compound 0.01 µM
  viability, T/C: 14.7%
[7]
  viability, T/C: 8.1%
[8]
  viability, T/C: 3.6%
Second compound 0.00949 µM, first compound 0.000316 µM
  viability, T/C: 13.2%
Second compound 0.00949 µM, first compound 0.001 µM
  viability, T/C: 9.19%
Second compound 0.00949 µM, first compound 0.00316 µM
  viability, T/C: 10.9%
Second compound 0.00949 µM, first compound 0.01 µM
  viability, T/C: 13.8%
[13]
  viability, T/C: 7.68%
[14]
  viability, T/C: 2.81%
Second compound 0.03 µM, first compound 0.000316 µM
  viability, T/C: 12.8%
Second compound 0.03 µM, first compound 0.001 µM
  viability, T/C: 10.7%
Second compound 0.03 µM, first compound 0.00316 µM
  viability, T/C: 11.1%
Second compound 0.03 µM, first compound 0.01 µM
  viability, T/C: 12.4%
[19]
  viability, T/C: 5.85%
[20]
  viability, T/C: 3.42%
Second compound 0.0949 µM, first compound 0.000316 µM
  viability, T/C: 10.1%
Second compound 0.0949 µM, first compound 0.001 µM
  viability, T/C: 11%
Second compound 0.0949 µM, first compound 0.00316 µM
  viability, T/C: 10.1%
Second compound 0.0949 µM, first compound 0.01 µM
  viability, T/C: 12.7%
[25]
  viability, T/C: 4.18%
[26]
  viability, T/C: 2.27%
Second compound 0.3 µM, first compound 0.000316 µM
  viability, T/C: 14.4%
Second compound 0.3 µM, first compound 0.001 µM
  viability, T/C: 11.3%
Second compound 0.3 µM, first compound 0.00316 µM
  viability, T/C: 12.1%
Second compound 0.3 µM, first compound 0.01 µM
  viability, T/C: 7.79%
[31]
  viability, T/C: 4.23%
[32]
  viability, T/C: 2.06%

## CC(Nc1ccc2c(c1)OCCn1cc(N3C(=O)OCC3C(F)F)nc1-2)C(N)=O (stereo not drawn) + CCn1c(-c2cccnc2C(C)OC)c2c3cc(ccc31)N1CCOC(CC(NC(=O)C(C(C)C)N(C)C(=O)C3(F)CCN(C(=O)C#CC(C)(C)N(C)C)CC3)C(=O)N3CCCC(N3)C(=O)OCC(C)(C)C2)C1
Second compound 0.000949 µM
  IC50: < 31.6 nM
Second compound 0.003 µM
  IC50: < 31.6 nM
Second compound 0.00949 µM
  IC50: < 31.6 nM
Second compound 0.03 µM
  IC50: < 31.6 nM
Second compound 0.0949 µM
  IC50: < 31.6 nM
Second compound 0.3 µM
  IC50: < 31.6 nM
[1]
  viability, T/C: 26.6%
[2]
  viability, T/C: 24.9%
[3]
  viability, T/C: 14.1%
[4]
  viability, T/C: 24.3%
[5]
  viability, T/C: 8.98%
[6]
  viability, T/C: 1.64%
[7]
  viability, T/C: 11.9%
[8]
  viability, T/C: 8%
[9]
  viability, T/C: 6.61%
[10]
  viability, T/C: 4.14%
[11]
  viability, T/C: 2.69%
[12]
  viability, T/C: 0.95%
[13]
  viability, T/C: 9.31%
[14]
  viability, T/C: 8.26%
[15]
  viability, T/C: 6.9%
[16]
  viability, T/C: 3.65%
[17]
  viability, T/C: 1.68%
[18]
  viability, T/C: 1.1%
[19]
  viability, T/C: 8.58%
[20]
  viability, T/C: 7.61%
[21]
  viability, T/C: 6.15%
[22]
  viability, T/C: 2.63%
[23]
  viability, T/C: 1.91%
[24]
  viability, T/C: 1.86%
[25]
  viability, T/C: 10.4%
[26]
  viability, T/C: 8.62%
[27]
  viability, T/C: 4.05%
[28]
  viability, T/C: 3.24%
[29]
  viability, T/C: 1.57%
[30]
  viability, T/C: 1.22%
[31]
  viability, T/C: 8.96%
[32]
  viability, T/C: 6.86%
[33]
  viability, T/C: 3.94%
[34]
  viability, T/C: 2.09%
[35]
  viability, T/C: 1.58%
[36]
  viability, T/C: 1.59%

## C[C@@H](NC(=O)c1ncnc(N)c1Cl)c1ncc(C(=O)Nc2cc(C(F)(F)F)c(Cl)cn2)s1 + CCn1c(-c2cccnc2C(C)OC)c2c3cc(ccc31)N1CCOC(CC(NC(=O)C(C(C)C)N(C)C(=O)C3(F)CCN(C(=O)C#CC(C)(C)N(C)C)CC3)C(=O)N3CCCC(N3)C(=O)OCC(C)(C)C2)C1
Second compound 0.000949 µM
  IC50: < 31.6 nM
Second compound 0.003 µM
  IC50: < 31.6 nM
Second compound 0.00949 µM
  IC50: < 31.6 nM
Second compound 0.03 µM
  IC50: < 31.6 nM
Second compound 0.0949 µM
  IC50: < 31.6 nM
Second compound 0.3 µM
  IC50: < 31.6 nM
[1]
  viability, T/C: 44.6%
[2]
  viability, T/C: 55.7%
[3]
  viability, T/C: 35.6%
[4]
  viability, T/C: 56.4%
[5]
  viability, T/C: 45.2%
[6]
  viability, T/C: 21.5%
[7]
  viability, T/C: 18.7%
[8]
  viability, T/C: 15.2%
[9]
  viability, T/C: 16.7%
[10]
  viability, T/C: 16.3%
[11]
  viability, T/C: 16.3%
[12]
  viability, T/C: 12.6%
[13]
  viability, T/C: 14.2%
[14]
  viability, T/C: 14%
[15]
  viability, T/C: 13.8%
[16]
  viability, T/C: 14.1%
[17]
  viability, T/C: 12.6%
[18]
  viability, T/C: 13.3%
[19]
  viability, T/C: 14.6%
[20]
  viability, T/C: 14.2%
[21]
  viability, T/C: 17%
[22]
  viability, T/C: 16.4%
[23]
  viability, T/C: 13.6%
[24]
  viability, T/C: 12.3%
[25]
  viability, T/C: 12.1%
[26]
  viability, T/C: 14.3%
[27]
  viability, T/C: 12.7%
[28]
  viability, T/C: 14.5%
[29]
  viability, T/C: 13.6%
[30]
  viability, T/C: 13.8%
[31]
  viability, T/C: 12%
[32]
  viability, T/C: 13.5%
[33]
  viability, T/C: 14.9%
[34]
  viability, T/C: 15.3%
[35]
  viability, T/C: 13.8%
[36]
  viability, T/C: 13.1%

From PubChem BioAssay AID2060893 (Molecular Pharmacology Branch, DTP, NCI, 2025)
